The molecules below were run against ROCK2 (Homo sapiens (Human), UniProt O75116) (assay: ROCK2 assay (peptide phosphorylation, LABCHIP 3000 Reader)). Conditions: 5 μM ATP, 1.5 μM peptide substrate.
Format: biochemical
Protocol: The effectiveness of compounds of the present invention as ROCK inhibitors can be determined in a 30 μL, assay containing 20 mM HEPES, pH 7.5, 20 mM MgCl2, 0.015% Brij-35, 4 mM DTT, 5 μM ATP and 1.5 μM peptide substrate (FITC-AHA-AKRRRLSSLRA-OH). Compounds were dissolved in DMSO so that the final concentration of DMSO was <2%, and the reaction was initiated with Rho kinase variants. After incubation, the reaction was terminated by the addition of EDTA and the phosphorylated and non-phosphorylated peptides separated using a LABCHIP® 3000 Reader (Caliper Life Sciences). […] Compounds were tested in dose-response format, and the inhibition of kinase activity was calculated at each concentration of compound. The inhibition data were fit using a curve-fitting program to determine the IC50; i.e., the concentration of compound required to inhibit 50% of kinase activity.
Representative Examples were tested in the ROCK2 assay described above and found having ROCK2 inhibitory activity.

ROCK2, sequence (O75116 whole entry, species assumed): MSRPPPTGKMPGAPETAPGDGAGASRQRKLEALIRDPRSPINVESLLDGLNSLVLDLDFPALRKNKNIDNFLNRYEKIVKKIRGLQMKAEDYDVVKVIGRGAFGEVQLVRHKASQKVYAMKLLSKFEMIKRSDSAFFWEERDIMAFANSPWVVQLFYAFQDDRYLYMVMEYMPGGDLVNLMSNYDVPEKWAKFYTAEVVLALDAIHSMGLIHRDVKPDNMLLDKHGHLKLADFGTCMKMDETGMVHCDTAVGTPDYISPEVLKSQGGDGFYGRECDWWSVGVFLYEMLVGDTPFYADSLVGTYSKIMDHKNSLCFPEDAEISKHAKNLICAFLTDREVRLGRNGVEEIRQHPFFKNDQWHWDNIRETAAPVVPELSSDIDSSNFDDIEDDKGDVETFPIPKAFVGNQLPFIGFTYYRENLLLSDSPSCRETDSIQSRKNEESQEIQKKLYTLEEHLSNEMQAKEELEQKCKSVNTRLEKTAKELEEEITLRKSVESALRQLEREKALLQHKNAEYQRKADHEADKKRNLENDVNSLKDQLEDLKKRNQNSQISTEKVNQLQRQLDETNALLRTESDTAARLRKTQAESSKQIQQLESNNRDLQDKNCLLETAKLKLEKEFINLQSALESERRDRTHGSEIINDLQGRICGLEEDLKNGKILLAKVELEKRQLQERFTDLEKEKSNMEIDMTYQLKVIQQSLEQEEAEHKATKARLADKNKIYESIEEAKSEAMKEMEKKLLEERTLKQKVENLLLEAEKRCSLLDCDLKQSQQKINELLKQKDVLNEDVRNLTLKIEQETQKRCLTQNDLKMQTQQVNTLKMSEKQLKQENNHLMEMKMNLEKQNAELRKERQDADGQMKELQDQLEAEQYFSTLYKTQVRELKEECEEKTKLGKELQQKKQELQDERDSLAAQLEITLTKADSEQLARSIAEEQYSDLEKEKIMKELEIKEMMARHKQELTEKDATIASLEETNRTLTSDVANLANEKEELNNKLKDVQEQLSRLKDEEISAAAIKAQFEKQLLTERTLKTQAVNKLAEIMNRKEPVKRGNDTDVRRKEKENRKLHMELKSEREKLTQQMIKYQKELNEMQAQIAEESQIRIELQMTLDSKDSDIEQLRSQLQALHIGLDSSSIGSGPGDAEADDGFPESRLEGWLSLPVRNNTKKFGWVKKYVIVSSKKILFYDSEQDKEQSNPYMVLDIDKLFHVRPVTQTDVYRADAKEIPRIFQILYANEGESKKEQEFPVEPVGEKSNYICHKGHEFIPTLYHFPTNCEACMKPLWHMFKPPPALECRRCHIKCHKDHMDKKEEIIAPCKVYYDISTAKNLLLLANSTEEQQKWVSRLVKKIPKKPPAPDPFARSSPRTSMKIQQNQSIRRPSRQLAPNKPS

Row | Structure (SMILES) | IC50
1 | COc1cccc(C(C)n2c(C)nn(-c3ccc(-c4cn[nH]c4)cc3)c2=O)c1 (single isomer, unassigned) [Example 118, 1-(4-(1H-pyrazol-4-yl)phenyl)-4-(1-(3-methoxyphenyl)ethyl)-3-methyl-1H-1,2,4-triazol-5(4H)-one] | 5 to 50 nM
2 | COc1cccc(C(C)n2c(C)nn(-c3ccc(-c4cn[nH]c4)cc3)c2=O)c1 (single isomer, unassigned) [Example 119, 1-(4-(1H-pyrazol-4-yl)phenyl)-4-(1-(3-methoxyphenyl)ethyl)-3-methyl-1H-1,2,4-triazol-5(4H)-one] | 5 to 50 nM
3 | CC(O)c1nn(-c2ccc(-c3cn[nH]c3)cc2)c(=O)n1Cc1ccccc1 (single isomer, unassigned) [Example 140, 1-(4-(1H-pyrazol-4-yl)phenyl)-4-benzyl-3-(1-hydroxyethyl)-1H-1,2,4-triazol-5(4H)-one] | 5 to 50 nM
4 | O=c1n(-c2ccc(-c3cn[nH]c3)cc2)cnn1Cc1cccc(F)c1 [Example 1, 4-(4-(1H-pyrazol-4-yl)phenyl)-1-(3-fluorobenzyl)-1H-1,2,4-triazol-5(4H)-one] | 50 to 250 nM
5 | O=c1n(-c2ccc(-c3cn[nH]c3)cc2)cnn1Cc1ccccc1 [Example 2, 4-(4-(1H-pyrazol-4-yl)phenyl)-1-benzyl-1H-1,2,4-triazol-5(4H)-one] | 50 to 250 nM
6 | COc1cccc(Cn2ncn(-c3ccc(-c4cn[nH]c4)cc3)c2=O)c1 [Example 3, 4-(4-(1H-pyrazol-4-yl)phenyl)-1-(3-methoxybenzyl)-1H-1,2,4-triazol-5(4H)-one] | 50 to 250 nM
7 | O=c1n(-c2ccc(-c3cn[nH]c3)cc2)cnn1Cc1cc(F)ccc1F [Example 4, 4-(4-(1H-pyrazol-4-yl)phenyl)-1-(2,5-difluorobenzyl)-1H-1,2,4-triazol-5(4H)-one] | 250 to 2000 nM
8 | COc1cc(-n2cnn(Cc3ccccc3)c2=O)ccc1-c1cn[nH]c1 [Example 5, 1-benzyl-4-(3-methoxy-4-(1H-pyrazol-4-yl)phenyl)-1H-1,2,4-triazol-5(4H)-one] | 50 to 250 nM
9 | COc1cccc(Cn2ncn(-c3ccc(-c4cn[nH]c4)c(OC)c3)c2=O)c1 [Example 6, 4-(3-methoxy-4-(1H-pyrazol-4-yl)phenyl)-1-(3-methoxybenzyl)-1H-1,2,4-triazol-5(4H)-one] | 5 to 50 nM
10 | COc1cc(-n2cnn(Cc3cccc(F)c3)c2=O)ccc1-c1cn[nH]c1 [Example 7, 1-(3-fluorobenzyl)-4-(3-methoxy-4-(1H-pyrazol-4-yl)phenyl)-1H-1,2,4-triazol-5(4H)-one] | 50 to 250 nM
11 | COc1cc(-n2cnn(C(C)c3ccccc3)c2=O)ccc1-c1cn[nH]c1 (centres unmarked) [Example 8, 4-(3-methoxy-4-(1H-pyrazol-4-yl)phenyl)-1-(1-phenylethyl)-1H-1,2,4-triazol-5(4H)-one] | 250 to 2000 nM
12 | COc1cc(-c2cn[nH]c2)ccc1-n1cnn(Cc2ccccc2)c1=O [Example 10, 1-benzyl-4-(2-methoxy-4-(1H-pyrazol-4-yl)phenyl)-1H-1,2,4-triazol-5(4H)-one] | 250 to 2000 nM
13 | COc1cc(-c2cn[nH]c2)ccc1-n1cnn(Cc2cccc(F)c2)c1=O [Example 12, 1-(3-fluorobenzyl)-4-(2-methoxy-4-(1H-pyrazol-4-yl)phenyl)-1H-1,2,4-triazol-5(4H)-one] | 50 to 250 nM
14 | COc1cc(-c2cn[nH]c2)ccc1-n1cnn(Cc2cc(F)ccc2F)c1=O [Example 13, 1-(2,5-difluorobenzyl)-4-(2-methoxy-4-(1H-pyrazol-4-yl)phenyl)-1H-1,2,4-triazol-5(4H)-one] | 250 to 2000 nM
15 | COc1cc(-c2cn[nH]c2)ccc1-n1cnn(CCc2ccccc2)c1=O [Example 14, 4-(2-methoxy-4-(1H-pyrazol-4-yl)phenyl)-1-phenethyl-1H-1,2,4-triazol-5(4H)-one] | 50 to 250 nM
16 | COc1cc(-c2cn[nH]c2)ccc1-n1cnn(Cc2cc(F)ccc2F)c1=O [Example 16, 1-(2,5-difluorobenzyl)-4-(2-methoxy-4-(1H-pyrazol-4-yl)phenyl)-1H-1,2,4-triazol-5(4H)-one] | 50 to 250 nM
17 | O=c1n(Cc2ccccc2)cnn1-c1ccc(-c2cn[nH]c2)cc1 [Example 17, 1-(4-(1H-pyrazol-4-yl)phenyl)-4-benzyl-1H-1,2,4-triazol-5(4H)-one] | 5 to 50 nM
18 | COc1cccc(Cn2cnn(-c3ccc(-c4cn[nH]c4)cc3)c2=O)c1 [Example 18, 1-(4-(1H-pyrazol-4-yl)phenyl)-4-(3-methoxybenzyl)-1H-1,2,4-triazol-5(4H)-one] | < 5 nM
19 | O=c1n(Cc2cccc(F)c2)cnn1-c1ccc(-c2cn[nH]c2)cc1 [Example 19, 1-(4-(1H-pyrazol-4-yl)phenyl)-4-(3-fluorobenzyl)-1H-1,2,4-triazol-5(4H)-one] | < 5 nM
20 | COc1cc(F)cc(Cn2cnn(-c3ccc(-c4cn[nH]c4)cc3)c2=O)c1 [Example 21, 1-(4-(1H-pyrazol-4-yl)phenyl)-4-(3-fluoro-5-methoxybenzyl)-1H-1,2,4-triazol-5(4H)-one] | < 5 nM
21 | COc1cc(-n2ncn(Cc3ccccc3)c2=O)ccc1-c1cn[nH]c1 [Example 23, 4-benzyl-1-(3-methoxy-4-(1H-pyrazol-4-yl)phenyl)-1H-1,2,4-triazol-5(4H)-one] | < 5 nM
22 | COc1cc(-n2ncn(Cc3cc(F)ccc3F)c2=O)ccc1-c1cn[nH]c1 [Example 25, 4-(2,5-difluorobenzyl)-1-(3-methoxy-4-(1H-pyrazol-4-yl)phenyl)-1H-1,2,4-triazol-5(4H)-one] | 5 to 50 nM
23 | COc1cc(F)cc(Cn2cnn(-c3ccc(-c4cn[nH]c4)c(OC)c3)c2=O)c1 [Example 26, 4-(3-fluoro-5-methoxybenzyl)-1-(3-methoxy-4-(1H-pyrazol-4-yl)phenyl)-1H-1,2,4-triazol-5(4H)-one] | < 5 nM
24 | O=c1n(Cc2ccccc2F)cnn1-c1ccc(-c2cn[nH]c2)cc1 [Example 28, 1-(4-(1H-pyrazol-4-yl)phenyl)-4-(2-fluorobenzyl)-1H-1,2,4-triazol-5(4H)-one] | 5 to 50 nM
25 | O=c1n(Cc2ccccc2Cl)cnn1-c1ccc(-c2cn[nH]c2)cc1 [Example 29, 1-(4-(1H-pyrazol-4-yl)phenyl)-4-(2-chlorobenzyl)-1H-1,2,4-triazol-5(4H)-one] | 5 to 50 nM
26 | COc1cc(-n2ncn(Cc3cccc(F)c3)c2=O)ccc1-c1cn[nH]c1 [Example 30, 4-(3-fluorobenzyl)-1-(3-methoxy-4-(1H-pyrazol-4-yl)phenyl)-1H-1,2,4-triazol-5(4H)-one] | < 5 nM

Now from value to molecule:

Row | IC50 | Structure (SMILES)
27 | 5 to 50 nM | COc1cccc(C(C)n2cnn(-c3ccc(-c4cn[nH]c4)cc3)c2=O)c1 (single isomer, unassigned) [Example 47, 1-(4-(1H-pyrazol-4-yl)phenyl)-4-(1-(3-methoxyphenyl)ethyl)-1H-1,2,4-triazol-5(4H)-one]
28 | < 5 nM | COc1cccc(C(C)n2cnn(-c3ccc(-c4cn[nH]c4)cc3)c2=O)c1 (single isomer, unassigned) [Example 48, 1-(4-(1H-pyrazol-4-yl)phenyl)-4-(1-(3-methoxyphenyl)ethyl)-1H-1,2,4-triazol-5(4H)-one]
29 | 5 to 50 nM | CC(O)c1nn(-c2ccc(-c3cn[nH]c3)cc2)c(=O)n1Cc1ccccc1 (single isomer, unassigned) [Example 141, 1-(4-(1H-pyrazol-4-yl)phenyl)-4-benzyl-3-(1-hydroxyethyl)-1H-1,2,4-triazol-5(4H)-one]
30 | 50 to 250 nM | COc1cc(Cn2c(C(C)O)nn(-c3ccc(-c4cn[nH]c4)cc3)c2=O)cc(OC)c1 (single isomer, unassigned) [Example 147, 1-(4-(1H-pyrazol-4-yl)phenyl)-4-(3,5-dimethoxybenzyl)-3-(1-hydroxyethyl)-1H-1,2,4-triazol-5(4H)-one]
31 | 50 to 250 nM | COc1cc(-n2cnn(CCc3ccccc3)c2=O)ccc1-c1cn[nH]c1 [Example 9, 4-(3-methoxy-4-(1H-pyrazol-4-yl)phenyl)-1-phenethyl-1H-1,2,4-triazol-5(4H)-one]
32 | 50 to 250 nM | COc1cccc(Cn2ncn(-c3ccc(-c4cn[nH]c4)cc3OC)c2=O)c1 [Example 11, 4-(2-methoxy-4-(1H-pyrazol-4-yl)phenyl)-1-(3-methoxybenzyl)-1H-1,2,4-triazol-5(4H)-one]
33 | 250 to 2000 nM | CC(c1ccccc1)n1ncn(-c2ccc(-c3cn[nH]c3)cc2)c1=O (centres unmarked) [Example 15, 4-(4-(1H-pyrazol-4-yl)phenyl)-1-(1-phenylethyl)-1H-1,2,4-triazol-5(4H)-one]
34 | 5 to 50 nM | O=c1n(Cc2cc(F)ccc2F)cnn1-c1ccc(-c2cn[nH]c2)cc1 [Example 20, 1-(4-(1H-pyrazol-4-yl)phenyl)-4-(2,5-difluorobenzyl)-1H-1,2,4-triazol-5(4H)-one]
35 | < 5 nM | CC(c1ccccc1)n1cnn(-c2ccc(-c3cn[nH]c3)cc2)c1=O (centres unmarked) [Example 22, 1-(4-(1H-pyrazol-4-yl)phenyl)-4-(1-phenylethyl)-1H-1,2,4-triazol-5(4H)-one]
36 | < 5 nM | COc1cccc(Cn2cnn(-c3ccc(-c4cn[nH]c4)c(OC)c3)c2=O)c1 [Example 24, 1-(3-methoxy-4-(1H-pyrazol-4-yl)phenyl)-4-(3-methoxybenzyl)-1H-1,2,4-triazol-5(4H)-one]
37 | < 5 nM | COc1cc(-n2ncn(C(C)c3ccccc3)c2=O)ccc1-c1cn[nH]c1 (centres unmarked) [Example 27, 1-(3-methoxy-4-(1H-pyrazol-4-yl)phenyl)-4-(1-phenylethyl)-1H-1,2,4-triazol-5(4H)-one]
38 | 5 to 50 nM | COc1cc(-n2ncn(Cc3ccccc3F)c2=O)ccc1-c1cn[nH]c1 [Example 31, 4-(2-fluorobenzyl)-1-(3-methoxy-4-(1H-pyrazol-4-yl)phenyl)-1H-1,2,4-triazol-5(4H)-one]
